Source: patent US20260276625A1, “SCREENING METHOD FOR COMPOUND INDUCING AUTOPHAGY” (TOHOKU UNIVERSITY, priority 2023, published 2026)

Assays:
Type in all cases: cell-based
RFP-p62 = molecular target: T1, RFP-p62 (Homo sapiens, UniProt P62942+Q13501); assay: Droplet formation, live cell imaging of HeLa cells expressing GFP-FKBP12 and RFP-p62, 1,6-hexanediol; details: 10 μM, 13 hours; disappeared after addition of 5% 1,6-hexanediol
T1 construct: expressed in transfected cells; host or cells: HeLa
Method: (§1) HeLa cells transiently expressing GFP-FKBP12 and RFP-DDX5, or GFP-FKBP12 and RFP-p62 were treated with AUTAC2-2G added in such an amount as to achieve a concentration of 10 μM for 13 hours. The treated cells were subjected to live cell imaging by a fluorescence microscope, and fluorescence derived from GFP and RFP was continuously observed. On the way, 5% 1,6-hexanediol was added 5 minutes after the start of observation to observe whether a dot-like structure in the field of view disappeared.
(§2) 1,6-Hexanediol is known to have an action of eliminating droplets, and this makes it possible to confirm whether the dot-like structure in the field of view of the microscope is a droplet.

RFP-DDX5 = molecular target: T2, RFP-DDX5 (Homo sapiens, UniProt P17844+P62942); assay: Droplet formation, live cell imaging of HeLa cells expressing GFP-FKBP12 and RFP-DDX5, 1,6-hexanediol; details: 10 μM, 13 hours; disappeared after addition of 5% 1,6-hexanediol
T2 construct: expressed in transfected cells; host or cells: HeLa
Method: as §1, §2

GFP-αSyn-FKBP^F36V = molecular target: T3, GFP-αSyn-FKBP^F36V (Homo sapiens, UniProt P62942, F37V); assay: Mutant FKBP-tagged synuclein degradation test (GFP fluorescence microscopy, HeLa cells); details: 48 hours, compared with untreated group (DMSO)
T3 construct: expressed in transfected cells; host or cells: HeLa
Method: HeLa cells transiently expressing GFP-α-synuclein tagged with a mutant FKBP (GFP-αSyn-FKBP^F36V) were treated with SLF′-AUTAC for 48 hours. In each of the wells of non-treated cells and treated cells, GFP fluorescence was photographed with a fluorescence microscope. Degradation of GFP-αSyn-FKBP^F36V was evaluated from the GFP fluorescence intensity.

DDX5 and p62 = molecular target: T4, DDX5 and p62 (Homo sapiens, UniProt P17844); assay: Droplet formation of DDX5 and p62, immunostaining of HeLa cells expressing GFP-FKBP^F36V; details: 1 μM, 12 hours, fixed cells, anti-DDX5 and anti-p62 antibody
T4 construct: endogenous in cells; host or cells: HeLa (transiently expressing GFP-FKBP^F36V)
Excerpt: Such a “droplet” can be confirmed by labeling a DEAD-box RNA helicase and/or p62 with a fluorescent label or the like, introducing a test compound into a system in which they exist, preferably treating cells expressing at least one of these with the test compound, and observing the presence of a substance visualized by the label with a fluorescence microscope or the like. In addition, for the purpose of confirming the properties of the liquid in more detail, it is preferable to combine this method with the fluorescence recovery after photobleaching (FRAP).
HeLa cells transiently expressing GFP tagged with a mutant FKBP (GFP-FKBP^F36V) were treated with 1 μM SLF′-AUTAC for 12 hours. The treated cells were fixed with 4% paraformaldehyde, then permeabilized with 0.1% TritonX-100/PBS, blocked with 1% BSA/PBS, immersed in PBS containing 1% rabbit-derived anti-DDX5 antibody and 1% mouse-derived anti-p62 antibody, and incubated at 4° C. overnight. Subsequently, the cells were immersed in PBS containing 1% AlexaFluor555-labeled anti-rabbit IgG and 1% AlexaFluor555-labeled anti-mouse IgG, and incubated at rccm temperature for 1 hour.

T3 sequence (P62942 whole entry F37V): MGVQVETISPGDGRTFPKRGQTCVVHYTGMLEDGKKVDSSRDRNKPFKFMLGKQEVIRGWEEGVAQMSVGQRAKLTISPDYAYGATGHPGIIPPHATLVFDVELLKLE
T1 sequence (Q13501 whole entry): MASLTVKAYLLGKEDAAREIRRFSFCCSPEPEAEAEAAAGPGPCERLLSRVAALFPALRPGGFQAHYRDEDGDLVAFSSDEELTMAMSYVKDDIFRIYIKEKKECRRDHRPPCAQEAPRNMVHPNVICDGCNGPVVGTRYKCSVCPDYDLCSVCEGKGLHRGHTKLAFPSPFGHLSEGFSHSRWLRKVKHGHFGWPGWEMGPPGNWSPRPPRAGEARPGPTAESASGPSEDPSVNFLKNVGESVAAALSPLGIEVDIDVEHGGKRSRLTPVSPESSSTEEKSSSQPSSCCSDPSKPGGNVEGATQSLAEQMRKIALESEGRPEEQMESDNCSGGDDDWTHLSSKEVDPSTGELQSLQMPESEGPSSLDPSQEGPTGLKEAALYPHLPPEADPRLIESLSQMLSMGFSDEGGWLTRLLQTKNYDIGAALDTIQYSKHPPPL
T1 sequence (P62942 whole entry): as the sequence (P62942 whole entry F37V) above, with V37F counted along it
T4 sequence (P17844 whole entry): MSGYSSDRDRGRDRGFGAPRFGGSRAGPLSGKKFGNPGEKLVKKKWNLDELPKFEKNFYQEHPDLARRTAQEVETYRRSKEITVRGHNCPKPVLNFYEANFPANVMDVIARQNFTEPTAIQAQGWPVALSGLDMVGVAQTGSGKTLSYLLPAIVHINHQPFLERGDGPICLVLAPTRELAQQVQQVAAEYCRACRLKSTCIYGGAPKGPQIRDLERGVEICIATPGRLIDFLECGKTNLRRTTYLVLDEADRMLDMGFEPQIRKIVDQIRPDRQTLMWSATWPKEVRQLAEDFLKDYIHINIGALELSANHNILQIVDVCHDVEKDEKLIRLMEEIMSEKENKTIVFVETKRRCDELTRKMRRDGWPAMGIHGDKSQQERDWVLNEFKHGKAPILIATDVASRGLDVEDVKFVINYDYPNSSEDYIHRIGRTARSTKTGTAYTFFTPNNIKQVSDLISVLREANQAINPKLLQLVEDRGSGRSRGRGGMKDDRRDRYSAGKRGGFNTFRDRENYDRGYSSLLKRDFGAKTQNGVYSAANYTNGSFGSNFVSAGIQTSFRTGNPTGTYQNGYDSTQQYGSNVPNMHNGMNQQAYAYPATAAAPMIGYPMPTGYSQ
T4 sequence (Q13501 2-440 partner): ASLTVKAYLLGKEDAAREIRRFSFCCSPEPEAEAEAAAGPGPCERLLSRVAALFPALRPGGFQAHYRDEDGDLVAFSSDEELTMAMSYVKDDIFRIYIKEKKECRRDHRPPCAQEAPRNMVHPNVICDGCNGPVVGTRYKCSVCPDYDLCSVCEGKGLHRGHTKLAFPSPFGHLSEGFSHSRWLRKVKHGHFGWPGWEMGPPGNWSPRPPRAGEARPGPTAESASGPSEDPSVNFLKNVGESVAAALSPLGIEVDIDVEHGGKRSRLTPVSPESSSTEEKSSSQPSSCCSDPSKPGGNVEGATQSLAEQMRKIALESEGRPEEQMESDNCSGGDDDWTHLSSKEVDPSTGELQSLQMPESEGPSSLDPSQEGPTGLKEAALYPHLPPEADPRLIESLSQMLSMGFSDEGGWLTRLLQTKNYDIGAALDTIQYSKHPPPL
T4 sequence (P62942 2-108 F37V partner): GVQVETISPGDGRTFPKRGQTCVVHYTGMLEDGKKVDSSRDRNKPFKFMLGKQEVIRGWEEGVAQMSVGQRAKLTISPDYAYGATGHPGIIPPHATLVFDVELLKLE
T2 sequence (P17844 whole entry): as the sequence (P17844 whole entry) above
T2 sequence (P62942 whole entry): as the sequence (P62942 whole entry F37V) above, with V37F counted along it

Structure (SMILES)	dot-like structure (droplet) containing GFP-FKBP12 and RFP-p62 (RFP-p62)	dot-like structure (droplet) containing GFP-FKBP12 and RFP-DDX5 (RFP-DDX5)	degradation of GFP-αSyn-FKBP^F36V (GFP fluorescence intensity) (GFP-αSyn-FKBP^F36V; 1 μM)	degradation of GFP-αSyn-FKBP^F36V (GFP fluorescence intensity) (GFP-αSyn-FKBP^F36V; 10 μM)	formation of a droplet containing DDX5 and p62 (DDX5 and p62)
CCC(C)(C)C(=O)C(=O)N1CCCC[C@H]1C(=O)O[C@H](CCc1ccc(OC)c(OC)c1)c1cccc(NC(=O)CCC(=O)NCCCOCCOCCOCCCn2cc(-c3nc4c(=O)[nH]c(N)nc4n3Cc3ccc(F)cc3)cn2)c1 [AUTAC2-2G]	a dot-like structure containing GFP-FKBP12 and RFP-p62 were observed	a dot-like structure containing GFP-FKBP12 and RFP-DDX5			
CC[C@H](C(=O)N1CCCC[C@H]1C(=O)O[C@H](CCc1ccc(OC)c(OC)c1)c1cccc(OCC(=O)NCCCOCCOCCOCCCn2cc(-c3nc4c(=O)[nH]c(N)nc4n3Cc3ccc(F)cc3)cn2)c1)c1cc(OC)c(OC)c(OC)c1 [SLF′-AUTAC]			the degradation of GFP-αSyn-FKBP^F36V was observed	the degradation of GFP-αSyn-FKBP^F36V was observed	DDX5 and p62 formed droplets in the cells
